Format in all cases: biochemical
One test addresses PI3Kγ (Homo sapiens, UniProt P48736). Briefly: PI3K-gamma fluorescence polarization assay. The note with it: 20 μM PIP2, 25 μM ATP; read-out: PI3Kγ Median IC50. As for the experimental part: PI3K-alpha and PI3K-gamma Fluorescence Polarization Assay Protocols
The reaction buffer was 20 mM HEPES pH 7.5, 2 mM MgCl2, 0.05% CHAPS, and 0.01% βME (added fresh). The substrate solution was 40 μM PIP2 (diC8, Echelon, Salt Lake City Utah cat # P-4508, 1 mM in water) and 50 μM ATP in the reaction buffer. Nunc 384-well black polypropylene fluorescent plates were used for PI3K assays. The assay is run by putting 9.5 μl of freshly diluted enzyme in the reaction buffer per well, adding 0.5 μl of diluted drug or DMSO, and mixing. Then 10 μl of the substrate solution is added to each well to start the reaction. A final concentration of 20 μM PIP2 and 25 μM ATP in the reaction was used. Reactions were allowed to proceed for 30-60 minutes at room temperature. After 30-60 minutes, 20 μl of a solution of 10 nM TAMRA detector (Red detector probe-Echelon) and 2.5 μM of GST-murineGRP (1.5 mg/ml in 17% glycerol) was added per well to stop the reaction. The resulting solution was mixed well and allowed to stand for 90-110 minutes before reading plate. Assay Plates were read on Perkin-Elmer Envision plate readers with appropriate filters for Tamra [BODIPY-TMRI(1,3,4,5)P4]. Data obtained were used to calculate enzymatic activity and enzyme inhibition by inhibitor compounds. It is important to keep Red probe solutions dark. This procedure is adapted from Echelon Biosciences Inc procedure for their PI3-Kinase fluorescence polarization activity Assay kit Product number K-1100.

A further test concerns the target T1, mTOR Kinase (FLAG-TOR) (Homo sapiens, UniProt P42345).
T1 construct: FLAG
Briefly: mTOR kinase assay, purified enzyme, DELFIA format. The following applies: 100 μM ATP, 1.25 μM His6-S6K; read-out: mTOR Kinase Median IC50.

The target in the next test is PI3Kα (Homo sapiens, UniProt P42336). The experiment in a line: PI3K-alpha fluorescence polarization assay. The note with it: 20 μM PIP2, 25 μM ATP; read-out: PI3Kα Median IC50. For orientation: Polarisation of emitted light reports the rotation of a fluorescent probe.

The IC50 is the concentration that inhibits the measured activity by half.

Structures are written as SMILES.

Chain of PI3Kγ (P48736 whole entry, species assumed): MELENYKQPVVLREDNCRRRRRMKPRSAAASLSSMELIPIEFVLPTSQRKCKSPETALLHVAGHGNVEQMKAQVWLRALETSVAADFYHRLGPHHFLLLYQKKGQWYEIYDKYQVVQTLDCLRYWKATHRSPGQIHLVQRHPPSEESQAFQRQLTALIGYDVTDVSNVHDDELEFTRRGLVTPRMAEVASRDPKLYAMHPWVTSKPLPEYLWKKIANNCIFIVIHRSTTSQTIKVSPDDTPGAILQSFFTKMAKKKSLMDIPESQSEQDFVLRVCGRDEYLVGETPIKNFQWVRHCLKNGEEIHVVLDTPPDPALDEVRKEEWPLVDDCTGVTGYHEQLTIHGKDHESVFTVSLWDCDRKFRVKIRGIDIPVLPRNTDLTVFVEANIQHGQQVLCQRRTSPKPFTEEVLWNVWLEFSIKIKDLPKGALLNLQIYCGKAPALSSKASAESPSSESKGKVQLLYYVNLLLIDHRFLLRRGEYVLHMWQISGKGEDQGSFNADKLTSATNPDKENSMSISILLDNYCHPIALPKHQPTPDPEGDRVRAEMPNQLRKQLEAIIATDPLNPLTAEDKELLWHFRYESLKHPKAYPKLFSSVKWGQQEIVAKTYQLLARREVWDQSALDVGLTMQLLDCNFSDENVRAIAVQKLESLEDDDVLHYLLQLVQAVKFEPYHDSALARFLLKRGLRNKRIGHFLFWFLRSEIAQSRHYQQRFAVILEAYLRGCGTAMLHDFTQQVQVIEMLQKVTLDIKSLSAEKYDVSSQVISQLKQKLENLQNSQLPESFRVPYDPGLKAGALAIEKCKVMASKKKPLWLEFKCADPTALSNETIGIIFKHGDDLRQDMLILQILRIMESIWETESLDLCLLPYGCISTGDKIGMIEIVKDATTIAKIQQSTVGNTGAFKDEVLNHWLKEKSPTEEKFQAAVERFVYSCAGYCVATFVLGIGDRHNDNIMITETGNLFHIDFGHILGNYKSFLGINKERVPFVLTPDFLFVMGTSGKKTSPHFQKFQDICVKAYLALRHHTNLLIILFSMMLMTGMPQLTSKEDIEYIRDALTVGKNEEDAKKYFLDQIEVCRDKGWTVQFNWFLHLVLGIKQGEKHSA
Chain of PI3Kα (P42336 whole entry, species assumed): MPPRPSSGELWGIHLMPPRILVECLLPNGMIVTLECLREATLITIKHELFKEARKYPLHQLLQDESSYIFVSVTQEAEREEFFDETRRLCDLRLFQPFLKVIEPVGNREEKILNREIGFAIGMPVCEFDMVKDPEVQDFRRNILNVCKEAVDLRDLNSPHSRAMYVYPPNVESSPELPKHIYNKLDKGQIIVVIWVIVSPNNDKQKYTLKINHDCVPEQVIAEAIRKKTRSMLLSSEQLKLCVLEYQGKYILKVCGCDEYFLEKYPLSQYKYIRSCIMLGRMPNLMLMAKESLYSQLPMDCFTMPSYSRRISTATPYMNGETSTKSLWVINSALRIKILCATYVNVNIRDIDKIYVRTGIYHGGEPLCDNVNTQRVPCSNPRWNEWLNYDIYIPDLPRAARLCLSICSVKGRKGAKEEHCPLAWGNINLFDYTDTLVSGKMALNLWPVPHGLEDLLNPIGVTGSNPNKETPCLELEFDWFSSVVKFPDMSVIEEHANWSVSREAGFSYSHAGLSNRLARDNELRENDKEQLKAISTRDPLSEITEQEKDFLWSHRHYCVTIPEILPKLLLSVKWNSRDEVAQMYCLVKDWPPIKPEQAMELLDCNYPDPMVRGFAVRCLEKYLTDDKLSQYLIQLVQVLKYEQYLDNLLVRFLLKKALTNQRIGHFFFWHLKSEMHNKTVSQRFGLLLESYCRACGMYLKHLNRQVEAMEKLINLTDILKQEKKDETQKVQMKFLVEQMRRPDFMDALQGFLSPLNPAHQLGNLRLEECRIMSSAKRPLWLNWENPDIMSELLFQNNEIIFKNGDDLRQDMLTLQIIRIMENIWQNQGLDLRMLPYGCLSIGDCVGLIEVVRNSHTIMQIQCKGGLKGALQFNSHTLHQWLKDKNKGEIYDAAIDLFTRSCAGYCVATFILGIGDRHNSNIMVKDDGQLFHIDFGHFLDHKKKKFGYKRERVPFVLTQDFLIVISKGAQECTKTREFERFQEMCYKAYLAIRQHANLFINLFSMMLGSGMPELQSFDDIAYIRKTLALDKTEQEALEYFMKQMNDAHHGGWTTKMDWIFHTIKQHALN
Chain of PI3Kα (P27986 whole entry partner, species assumed): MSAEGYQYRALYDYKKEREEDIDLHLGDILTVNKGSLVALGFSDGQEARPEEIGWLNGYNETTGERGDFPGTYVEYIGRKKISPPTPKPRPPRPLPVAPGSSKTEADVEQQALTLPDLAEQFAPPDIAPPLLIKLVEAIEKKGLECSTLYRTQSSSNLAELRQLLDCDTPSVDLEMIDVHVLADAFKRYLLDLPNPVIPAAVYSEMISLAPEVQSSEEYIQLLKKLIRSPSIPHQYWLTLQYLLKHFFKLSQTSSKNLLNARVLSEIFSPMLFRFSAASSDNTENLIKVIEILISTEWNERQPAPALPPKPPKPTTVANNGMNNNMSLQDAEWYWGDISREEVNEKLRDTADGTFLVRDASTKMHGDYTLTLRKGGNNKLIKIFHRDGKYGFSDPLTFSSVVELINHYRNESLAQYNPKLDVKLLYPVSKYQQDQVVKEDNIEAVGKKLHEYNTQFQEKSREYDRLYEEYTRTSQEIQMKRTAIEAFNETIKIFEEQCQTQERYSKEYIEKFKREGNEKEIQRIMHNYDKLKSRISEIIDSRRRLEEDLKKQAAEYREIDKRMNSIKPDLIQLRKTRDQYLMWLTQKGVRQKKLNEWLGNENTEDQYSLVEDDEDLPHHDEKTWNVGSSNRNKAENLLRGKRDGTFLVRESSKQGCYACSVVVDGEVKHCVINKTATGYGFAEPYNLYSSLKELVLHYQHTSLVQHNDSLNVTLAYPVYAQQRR

Regarding `O=C(Nc1ccncc1)Nc1ccc(-c2nc(N3CCOCC3)c3ccn(CC(F)(F)F)c3n2)cc1` [Compound 36, 1-{4-[4-morpholin-4-yl-7-(2,2,2-trifluoroethyl)-7H-pyrrolo[2,3-d]pyrimidin-2-yl]phenyl}-3-pyridin-4-ylurea], the IC50 on PI3Kγ is 63 nM.

In the case of `COC(Cn1ccc2c(N3CCOCC3)nc(-c3ccc(NC(=O)Nc4ccncc4)cc3)nc21)OC` [Compound 21, 1-{4-[7-(2,2-dimethoxyethyl)-4-morpholin-4-yl-7H-pyrrolo[2,3-d]pyrimidin-2-yl]phenyl}-3-pyridin-4-ylurea], on PI3Kγ, the IC50 was found to be 170 nM.

In the case of `CN(C)C1CCN(C(=O)c2ccc(NC(=O)Nc3ccc(-c4nc(N5CCOCC5)c5ccn(CC(F)(F)F)c5n4)cc3)cc2)CC1` [Compound 57, 1-(4-{[4-(dimethylamino)piperidin-1-yl]carbonyl}phenyl)-3-{4-[4-morpholin-4-yl-7-(2,2,2-trifluoroethyl)-7H-pyrrolo[2,3-d]pyrimidin-2-yl]phenyl}urea], the IC50 came to 27 nM at PI3Kγ and 1.7 nM at mTOR Kinase (FLAG-TOR).

With `CN(C)CCn1ccc2c(N3CCOCC3)nc(-c3ccc(NC(=O)Nc4ccc(F)cc4)cc3)nc21` [Compound 13, 1-(4-{7-[2-(dimethylamino)ethyl]-4-morpholin-4-yl-7H-pyrrolo[2,3-d]pyrimidin-2-yl}phenyl)-3-(4-fluorophenyl)urea], the IC50 at PI3Kγ worked out at 176 nM; at mTOR Kinase (FLAG-TOR), 7.75 nM.

`CN(C)CCn1ccc2c(N3CCOCC3)nc(-c3cccc(O)c3)nc21` [Compound 6, 3-{7-[2-(dimethylamino)ethyl]-4-morpholin-4-yl-7H-pyrrolo[2,3-d]pyrimidin-2-yl}phenol]: the IC50 is 1680 nM at PI3Kγ and above 800 nM at mTOR Kinase (FLAG-TOR).

On to `CN1CCN(CCn2ccc3c(N4CCOCC4)nc(-c4ccc(NC(=O)Nc5ccncc5)cc4)nc32)CC1` [Compound 28, 1-(4-{7-[2-(4-methylpiperazin-1-yl)ethyl]-4-morpholin-4-yl-7H-pyrrolo[2,3-d]pyrimidin-2-yl}phenyl)-3-pyridin-4-ylurea], for which the values for the IC50 on PI3Kγ and on mTOR Kinase (FLAG-TOR) were 317 nM and 24 nM, respectively.

`CN(C)CCn1ccc2c(N3CCOCC3)nc(-c3cccc(CO)c3)nc21` [Compound 7, (3-{7-[2-(dimethylamino)ethyl]-4-morpholin-4-yl-7H-pyrrolo[2,3-d]pyrimidin-2-yl}phenyl)methanol]: the half-maximal inhibitory concentration (IC50) was 712 nM at PI3Kγ and above 800 nM on mTOR Kinase (FLAG-TOR).

Regarding `CN(C)CCn1ccc2c(N3CCOCC3)nc(-c3ccc(NC(=O)Nc4ccncc4)cc3)nc21` [Compound 12, 1-(4-{7-[2-(dimethylamino)ethyl]-4-morpholin-4-yl-7H-pyrrolo[2,3-d]pyrimidin-2-yl}phenyl)-3-pyridin-4-ylurea], the IC50 came out at 36 nM at PI3Kγ and 11 nM at PI3Kα.

As to `O=C(Nc1ccncc1)Nc1ccc(-c2nc(N3CCOCC3)c3cc[nH]c3n2)cc1` [Compound 4, 1-[4-(4-morpholin-4-yl-7H-pyrrolo[2,3-d]pyrimidin-2-yl)phenyl]-3-pyridin-4-ylurea], the IC50 at PI3Kγ came to 65 nM.

Regarding `CN(C)CCn1ccc2c(N3CCOCC3)nc(-c3ccc(NC(=O)Nc4cccnc4)cc3)nc21` [Compound 9, 1-(4-{7-[2-(dimethylamino)ethyl]-4-morpholin-4-yl-7H-pyrrolo[2,3-d]pyrimidin-2-yl}phenyl)-3-pyridin-3-ylurea], the IC50 turned out to be 102 nM on PI3Kγ and 2.95 nM on mTOR Kinase (FLAG-TOR).

On to `O=CCn1ccc2c(N3CCOCC3)nc(-c3ccc(NC(=O)Nc4ccncc4)cc3)nc21` [Compound 22, 1-{4-[4-morpholin-4-yl-7-(2-oxoethyl)-7H-pyrrolo[2,3-d]pyrimidin-2-yl]phenyl}-3-pyridin-4-ylurea], for which the IC50 at PI3Kγ is 7 nM.

Take `O=C(Nc1ccncc1)Nc1ccc(-c2nc(N3CCOCC3)c3ccn(CCO)c3n2)cc1` [Compound 34, 1-{4-[7-(2-hydroxyethyl)-4-morpholin-4-yl-7H-pyrrolo[2,3-d]pyrimidin-2-yl]phenyl}-3-pyridin-4-ylurea]: the IC50 turned out to be 40 nM at PI3Kγ and 4 nM at PI3Kα.

Take `Oc1cccc(-c2nc(N3CCOCC3)c3cc[nH]c3n2)c1` [Compound 2, 3-(4-morpholin-4-yl-7H-pyrrolo[2,3-d]pyrimidin-2-yl)phenol]: the 50% inhibitory concentration (IC50) on PI3Kγ came to 338 nM.

As to `CCNC(=O)Nc1ccc(-c2nc(N3CCOCC3)c3ccn(CCN(C)C)c3n2)cc1` [Compound 16, 1-(4-{7-[2-(dimethylamino)ethyl]-4-morpholin-4-yl-7H-pyrrolo[2,3-d]pyrimidin-2-yl}phenyl)-3-ethylurea], the results for the IC50 at PI3Kγ and on mTOR Kinase (FLAG-TOR) were 538 nM and 30 nM, respectively.

As to `O=C(Nc1ccncc1)Nc1ccc(-c2nc(N3CCOCC3)c3ccn(CCN4CCNCC4)c3n2)cc1` [Compound 29, 1-{4-[4-morpholin-4-yl-7-(2-piperazin-1-ylethyl)-7H-pyrrolo[2,3-d]pyrimidin-2-yl]phenyl}-3-pyridin-4-ylurea], the IC50 at PI3Kγ came out at 36 nM.

Regarding `CNC(=O)Nc1ccc(-c2nc(N3CCOCC3)c3ccn(CCN(C)C)c3n2)cc1` [Compound 17, 1-(4-{7-[2-(dimethylamino)ethyl]-4-morpholin-4-yl-7H-pyrrolo[2,3-d]pyrimidin-2-yl}phenyl)-3-methylurea], the IC50 stood at 813 nM at PI3Kγ and 33 nM on mTOR Kinase (FLAG-TOR).

As to `CN(C)CCn1ccc2c(N3CCOCC3)nc(-c3ccc(NC(=O)Nc4ccccn4)cc3)nc21` [Compound 11, 1-(4-{7-[2-(dimethylamino)ethyl]-4-morpholin-4-yl-7H-pyrrolo[2,3-d]pyrimidin-2-yl}phenyl)-3-pyridin-2-ylurea], on PI3Kγ, the IC50 was 626 nM.

On to `OCc1cccc(-c2nc(N3CCOCC3)c3cc[nH]c3n2)c1` [Compound 1, [3-(4-morpholin-4-yl-7H-pyrrolo[2,3-d]pyrimidin-2-yl)phenyl]methanol], for which, on PI3Kγ, the IC50 was determined as 752 nM.

`O=C(Nc1ccncc1)Nc1ccc(-c2nc(N3CCOCC3)c3ccn(CCN4CCCCC4)c3n2)cc1` [Compound 24, 1-{4-[4-morpholin-4-yl-7-(2-piperidin-1-ylethyl)-7H-pyrrolo[2,3-d]pyrimidin-2-yl]phenyl}-3-pyridin-4-ylurea]: the half-maximal inhibitory concentration (IC50) at PI3Kγ worked out at 774 nM.

In the case of `O=C(Nc1ccncc1)Nc1ccc(-c2nc(N3CCOCC3)c3ccn(CCN4CCCC4)c3n2)cc1` [Compound 23, 1-{4-[4-morpholin-4-yl-7-(2-pyrrolidin-1-ylethyl)-7H-pyrrolo[2,3-d]pyrimidin-2-yl]phenyl}-3-pyridin-4-ylurea], the 50% inhibitory concentration (IC50) on PI3Kγ is 370 nM.

Consider `CN(C)CCN(C)C(=O)c1ccc(NC(=O)Nc2ccc(-c3nc(N4CCOCC4)c4ccn(CC(F)(F)F)c4n3)cc2)cc1` [Compound 51, N-[2-(dimethylamino)ethyl]-N-methyl-4-[({4-[4-morpholin-4-yl-7-(2,2,2-trifluoroethyl)-7H-pyrrolo[2,3-d]pyrimidin-2-yl]phenyl}carbamoyl)amino]benzamide], for which the concentration for half-maximal inhibition (IC50) was found to be 14 nM on PI3Kγ and 0.48 nM on mTOR Kinase (FLAG-TOR).

For the compound `CN(C)CCNCCn1ccc2c(N3CCOCC3)nc(-c3ccc(NC(=O)Nc4ccncc4)cc3)nc21` [Compound 27, 1-{4-[7-(2-{[2-(dimethylamino)ethyl]amino}ethyl)-4-morpholin-4-yl-7H-pyrrolo[2,3-d]pyrimidin-2-yl]phenyl}-3-pyridin-4-ylurea], on PI3Kγ, the IC50 is 424 nM.

The record behind these values is patent US20100003250A1, “(2-ARYL-7H-PYRROLO[2,3-D]PYRIMIDIN-4-YL)MORPHOLINE COMPOUNDS, THEIR USE AS MTOR KINASE AND PI3 KINASE INHIBITORS, AND THEIR SYNTHESES” (Wyeth, priority 2008, published 2010).
